Assay results: the SangsterLogP compilation

What was measured:
[1] = method code SF-AS, from DOI: 10.1021/jm00384a018, PMID: 3806586
[2] = method code RP-HPLC, from DOI: 10.1016/0143-7208(91)85018-4; details: pH 7.0
[3] = method code SF-RC, from DOI: 10.1016/s0969-8051(98)00005-5, PMID: 9720665; details: pH 7.0
[4] = not given; remark: listed apart in the source
[5] = method code SF, from DOI: 10.3109/00498258909043190, PMID: 2618089; details: pH 10.8
[6] = not given; remark: listed apart in the source
[7] = method code SF-AS, from DOI: 10.1016/0048-3575(87)90152-0
[8] = method code SF-RC, from DOI: 10.1021/jm901850k, PMID: 20411954; details: pH 7.4
[9] = method code SF-AS, from PMID: 11446164; details: pH 5.9
[10] = method code SF-HPLC, from DOI: 10.1023/a:1015968113838, PMID: 3247280; details: pH 7.4
[11] = method code SF-AS, from DOI: 10.1021/jm00160a012, PMID: 3761307; details: pH 7.4
[12] = not given; remark: listed apart in the source
[13] = method code SF, from DOI: 10.1016/0048-3575(89)90162-4
[14] = method code SF-AS, from DOI: 10.1021/jm991080o, PMID: 10579844; details: pH 7.4
[15] = method code SF-HPLC, from DOI: 10.1111/j.1747-0285.2011.01193.x, PMID: 21777394; details: pH 7.4
[16] = method code SF, from DOI: 10.1016/0048-3575(74)90109-6
[17] = method code SF-AS, from DOI: 10.1021/jm00254a028, PMID: 4845386
[18] = not given; remark: listed apart in the source
[19] = method code SF-GLC, from DOI: 10.1002/ps.2780120408; details: pH 7.0
[20] = method code SF, from DOI: 10.1007/bf01610114, PMID: 6839039
[21] = method code SF-AS, from PMID: 19779; details: pH 2.0
[22] = not given; remark: listed apart in the source
[23] = pH 7.4
[24] = method code SF-HPLC, from DOI: 10.1016/0928-0987(95)00046-1; details: pH 4.0
[25] = not given; remark: listed apart in the source
[26] = method code SF-RC, from PMID: 1811623
[27] = not given; remark: listed apart in the source
[28] = method code SF, from DOI: 10.1021/jm950585l, PMID: 8632436
[29] = method code SF-AS, from DOI: 10.1002/jps.2600741028, PMID: 4078715
[30] = method code SF-RC, from DOI: 10.1002/jlcr.1863; details: pH 7.4
[31] = method code SF-AS, from DOI: 10.1016/0223-5234(94)90063-9; details: pH 2.0
[32] = method code SF-RC, from DOI: 10.1021/jm0607193, PMID: 17004725
[33] = method code SF-RC, from DOI: 10.1111/j.2042-7158.1987.tb06949.x, PMID: 2882008; details: pH 1.0
[34] = not given; remark: listed apart in the source
[35] = method code SF-AS, from DOI: 10.1002/ardp.19843170314
[36] = method code SF-RC, from DOI: 10.1016/j.nucmedbio.2009.09.005, PMID: 20447558; details: pH 7.4
[37] = method code SF-HPLC, from DOI: 10.1021/jm030477w, PMID: 15084119; details: pH 7.4
[38] = method code SF, from PMID: 8265709; details: pH 7.4
[39] = method code SF-HPLC, from DOI: 10.1021/jm00119a020; details: pH 7.4
[40] = method code SF-RC, from DOI: 10.1021/es00096a007
[41] = method code SF, from DOI: 10.1021/jm00019a019, PMID: 7562920; details: pH 10.0
[42] = not given; remark: listed apart in the source
[43] = method code SF-AS, from DOI: 10.1021/jm00392a004, PMID: 3625703; details: pH 6.9
[44] = method code SF-AS, from PMID: 7849133; details: pH 3.6
[45] = method code SF-RC, from DOI: 10.1002/ps.2780240105; details: pH 7.0
[46] = method code SF-AS, from DOI: 10.1002/jps.2600620542, PMID: 4705706
[47] = not given; remark: listed apart in the source
[48] = method code SF, from DOI: 10.1021/jm0498699.s001, PMID: 15163209

## CC(=O)C1=CCCN(NC(=O)c2ccccc2)C1
[1]
  logP: -0.1

## Nc1ccc(N)c2c1C(=O)c1ccccc1C2=O
[2]
  logD: 3

## OC1OC2COC(c3ccc(I)cc3)OC2C(O)C1O (centres undefined)
[3]
  logD: 1.9

## C(=C\c1ccccc1)/c1ccccc1
other
  logP: 4.59

## CC1c2nc3ccccc3c(=O)n2CCN1C (centres undefined)
[4]
  logP: 0.64

## O=C(Cn1c(=O)sc2ccc(Cl)cc21)N1CCNCC1
[5]
  logD: 1.35

## CCCCC(O)(Cn1cncn1)c1ccc(Cl)cc1Cl (centres undefined)
[6]
  logP: 3.9

## CCC(C(=O)Oc1ccccc1)C(C)C (centres undefined)
[7]
  logP: 4.2

## CON=C1C=C(C#Cc2csc(CF)n2)CCC1
[8]
  logD: 1.6

## O=C1N=C(N2CCOCC2)CN1c1ccc(Cl)cc1
[9]
  logD: 1.32

## CCCCC(=O)OCC1OC(n2cc(I)c(=O)[nH]c2=O)CC1O (centres undefined)
[10]
  logD: 1.44

## CC1=C(N)C(=O)c2c(COC(N)=O)c3n(c2C1=O)CC(N1CC1)C3N1CC1 (centres undefined)
[11]
  logD: 0.23

## CCN(CC)CCOC(=O)c1ccc(N)cc1
[12]
  logP: 2.1

## OC1(c2ccccc2Cl)CCCCC1n1cncn1 (centres undefined)
[13]
  logP: 2.68

## CCc1c(O)c(=O)ccn1CCOC(=O)C(C)C
[14]
  logD: 0.7

## C[C@@H](OC(=O)N(N(CCCl)S(C)(=O)=O)S(C)(=O)=O)c1ccc([N+](=O)[O-])cc1
[15]
  logD: 2.15

## Fc1ccc(C(c2ccc(F)cc2)C(Cl)(Cl)Cl)cc1
[16]
  logP: 4.62

## OC1c2ccccc2C2CCCCC2C1O (centres undefined)
[17]
  logP: 2.47

## Cc1cc(NC(=O)C2=C(O)c3ccccc3S(=O)(=O)N2C)no1
[18]
  logP: 2.83

## CCOP(=S)(Oc1ccc([N+](=O)[O-])cc1)c1ccccc1 (centres undefined)
[19]
  logD: 3.85

## C=CCOC(=O)c1ccccc1C(=O)OCC=C
[20]
  logP: 3.23

## CCC1(c2ccccc2)C(=O)NC(=O)N(C)C1=O (centres undefined)
[21]
  logD: 1.84

## CCn1cc(C(=O)O)c(=O)c2cc3nc[nH]c3cc21
[22]
  logP: 0.41

## CCCC(=O)OCOC(=O)c1ccccc1OC(C)=O
[23]
  logD: 2.5

## Cc1cnc(NC(=O)C2=C(O)c3ccccc3S(=O)(=O)N2C)s1
[24]
  logD: 2.34

## Ic1ccc2nc(-c3ccc(-c4nnn[nH]4)cc3)cn2c1
[25]
  logP: 1.73

## Cc1c(C)c2ccc3occc3c2oc1=O
[26]
  logP: 2.9

## O=C(O)C1(O)c2ccccc2-c2ccc(Cl)cc21 (centres undefined)
[27]
  logP: 3.22

## Cc1cc2c(ccc3c(C)cc(=O)[nH]c32)o1
[28]
  logP: 2.21

## COc1ccc(C=[N+]([O-])c2ccccc2)cc1
[29]
  logP: 1.94

## O=c1[nH]c(=O)n(C2CC(O)C(CO)O2)cc1-c1cn(CCF)nn1 (centres undefined)
[30]
  logD: -1.33

## Cn1c(CC(=O)O)cnc1C(=O)c1ccccc1
[31]
  logD: 0.22

## COc1cc(C=CC(=O)C=C(C)O)cc(I)c1O
[32]
  logP: 1.35

## Cc1c(Cl)cccc1Nc1ccccc1C(=O)O
[33]
  logD: 4.18

## c1ccc(CCc2ccccc2)cc1
[34]
  logP: 4.6

## O=C(O)Cc1ccccc1Oc1ccc(Cl)cc1Cl
[35]
  logP: 4.8

## CN(CCc1ccccc1)C(=O)c1ccc[nH]1
[36]
  logD: 1.65

## Nc1ccc(-c2cn3cc(I)ccc3n2)cc1
[37]
  logD: 3.58

## Cc1c(C(C)C)c(=O)n(-c2ccccc2)n1C
[38]
  logD: 1.94

## CCCN1CCO[C@H]2c3cc(O)ccc3OC[C@@H]21
[39]
  logD: 1.97

## Nc1ccc2cc3ccccc3cc2c1
[40]
  logP: 4.13

## CNc1ncnc2c1ncn2Cc1ccccc1F
[41]
  logD: 1.86

## OC(Cn1cncn1)(Cn1cncn1)c1ccc(Cl)cc1Cl
[42]
  logP: 1.1

## CCCCC1(c2ccncc2)CCC(=O)NC1=O (centres undefined)
[43]
  logD: 1.68

## O=C(O)c1cccnc1Nc1cccc(C(F)(F)F)c1
[44]
  logD: 2.95

## CCCCc1c(C)nc(NCC)nc1OS(=O)(=O)N(C)C
[45]
  logD: 2.7

## COc1ccc(C(=O)c2ccncc2)cc1
[46]
  logP: 1.94

## O=c1ccn(CCO)c(C(O)c2ccccc2)c1O (centres undefined)
[47]
  logP: 0.58

## COC(=O)CCNC(=O)c1cc(N2CC2)c([N+](=O)[O-])cc1[N+](=O)[O-]
[48]
  logP: 0.56
